# Test: storage stability
# Assay type: physicochemical
# From the text: Those compounds in which Rx or Ry is a hydrogen atom should be stored generally at lower temperatures, e.g. in a refrigerator. The 1-isocyano-l-p-toluenesulphonylethene (Rx and Ry hydrogen atoms) appears to be very unstable. Notwithstanding this the compound, in the reaction medium in which it must be present, could be converted with a primary amine into the corresponding imidazole, which in turn, may be converted into its ^picrate. This proves that 1-isocyano-i-p-toluenesulphonylethene exists.
structure (smiles),measurement,value
"[C-]#[N+]C(=C)S(=O)(=O)c1ccc(C)cc1 [Example 8, 1-isocyano-1-(4-toluenesulphonyl)-ethene]",stability,very unstable

# From patent EP0007672A1, “Isocyanoalkenes, process and useful intermediates for their preparation, pharmaceutical and fungicidal preparations containing those isocyanoalkenes and the use of the fungicidal preparations in agriculture” (GIST-BROCADES N.V., priority 1978, dated 1980)
